The values that follow come from EP0462071B1, “Pharmaceutical resorption-improved somatostatin compositions, their preparation and use” (SANDOZ LTD., priority 1990, dated 1991).

The series can be described thus: Resorption of octreotide after injection of a solution into the jejunum of anaesthetised rats; plasma concentration by radio-immunoassay. Type of series: in vivo, Wistar rats. The conditions noted are these: for AUC(0-t): area under the curve over 2 hours. The procedure:
Wistar rats (about 300 g body weight) were fasted for 12 hours and anaesthetised with urethane (2 doses of […] i.p.). The abdomen was opened to gain access to the gastrointestinal tract in particular the jejunum. A solution of the pharmaceutical composition according to the invention or of the somatostatin as a control or of a somatostatin in combination with sodium taurocholate, a resorption enhancer, known to be used in combination with e.g. salmon calcitonin or insulin for an improved resorption through the mucous membrane of the gastrointestinal tract, was injected into the gastrointestinal tract, e.g. the jejunum. Blood samples (e.g. 1 ml) are obtained 20 minutes, and 1 and 2 hours after administration from the vena cava. The blood is centrifuged and the somatostatin concentration in the plasma determined in conventional manner using a radio-immunoassay method.
The relative bioavailability (AUCo² = Area under the curve over 2 hours) is determined and expressed in the following table, in which the AUC is expressed as ng/ml.hour and Cmax as ng/ml: TABLE A

Each structure is given as a SMILES string. Read-outs that look alike come from different tables or passages of the source.

`C[C@@H](O)[C@@H]1NC(=O)[C@H](CCCCN)NC(=O)[C@@H](Cc2c[nH]c3ccccc23)NC(=O)[C@H](Cc2ccccc2)NC(=O)[C@@H](NC(=O)[C@H](N)Cc2ccccc2)CSSC[C@@H](C(=O)N[C@H](CO)[C@@H](C)O)NC1=O` [100 microg. of octreotide (reference), Octreotide]: where the note is “Wistar, rat, 100 microg., octreotide in plasma, 0.5 ml of NaCl (0.9 % W/V) solution injected into the jejunum, sem in the next column”, the Cmax was found to be 2.23 ng/mL. The AUC(0-t) by setting is: (Wistar, rat, 100 microg., octreotide in plasma, 0.5 ml of NaCl (0.9 % W/V) solution injected into the jejunum, blood samples at 20 minutes, 1 and 2 hours, read-out: AUCo² median) 2.06 ng·h/mL; (Wistar, rat, plasma, 100 microg., octreotide in plasma, 0.5 ml of NaCl (0.9 % W/V) solution injected into the jejunum, sem in the next column, read-out: AUCo² mean) 2.26 ng·h/mL. Further, under “relative to 100 microg. of octreotide alone (reference = 100 %), values correspond to the ratio of the median AUCo²”, the Bioavail. rel. % is 100%.
